# According to ChEMBL document CHEMBL1123748, “Opioid agonist and antagonist activities of monofunctional nitrogen mustard analogues of beta-chlornaltrexamine” (1987):
# Legend:
# [1] = species: Cavia porcellus; experiment: Antagonist activity was determined by partial agonist activity of EK in Guinea pig ileum (GPI); format: functional
# [2] = species: Cavia porcellus; experiment: Antagonist activity was determined by partial agonist activity of morphine in Guinea pig ileum (GPI); format: functional
# [3] = species: Cavia porcellus; experiment: Opioid agonist activity was determined as potency ratio relative to morphine in Guinea pig ileum (GPI); format: functional
# [4] = species: Mus musculus; experiment: IC50 ratio for leucine-enkephalin rather than DADLE determined in Mouse vas deferens (MVD); format: functional
# [5] = species: Mus musculus; experiment: Opioid agonist activity was determined in Mouse vas deferens (MVD); format: functional
# [6] = species: Cavia porcellus; experiment: Antagonist activity was determined by partial agonist activity of EK in Guinea pig ileum (GPI); irreversible agonist activity; format: functional, organism-based
# [7] = species: Cavia porcellus; experiment: Antagonist activity was determined by partial agonist activity of morphine in Guinea pig ileum (GPI); irreversible agonist activity; format: functional, organism-based
compound,measurement,setting,value
CN(CCCl)[C@@H]1CC[C@@]2(O)C3Cc4ccc(O)c5c4C2(CCN3CC2CC2)[C@H]1O5 (stereo not given in full),IC50 ratio,[1],17.3
same,IC50 ratio,[2],48.8
same,Potency ratio,[3],5.3
same,IC50 ratio,[4],2.9
same,IC20,[5],10 nM
CN(CCCl)[C@H]1CC[C@@]2(O)C3Cc4ccc(O)c5c4C2(CCN3CC2CC2)[C@H]1O5 (stereo not given in full),IC50 ratio,[6],irreversible agonist activity
same,IC50 ratio,[7],irreversible agonist activity
same,Potency ratio,[3],159
same,IC50 ratio,[4],5
same,IC20,[5],3 nM
